What was measured:
Experiment in all cases: Test B pre-/postemergence plant response
Assay type in all cases: in vivo
soybean (Glycine max) = conditions: for Soybean plant response rating (0 to 100 scale): 62 g ai/ha, 0 is no effect
Summary of the method: (§1)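 Seeds were sown in loam soil/sand blend and treated preemergence with compound in non-phytotoxic solvent mixture containing surfactant; postemergence sprays, same formulation, went onto plants 2 to 18 cm (1- to 4-leaf stage) in peat-based planting medium. Greenhouse 13 to 15 days, then visual rating versus untreated controls, 0 (no effect) to 100 (complete control).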

[1] = system: pigweed (Amaranthus retroflexus); conditions: for Pigweed plant response rating (0 to 100 scale): 62 g ai/ha, 0 is no effect
Summary of the method: as §1

[2] = system: Italian ryegrass (Lolium multiflorum); conditions: for Ryegrass, Italian plant response rating (0 to 100 scale): 62 g ai/ha, 0 is no effect
Summary of the method: as §1

[3] = system: johnsongrass (Sorghum halepense); conditions: for Johnsongrass plant response rating (0 to 100 scale): 62 g ai/ha, 0 is no effect
Summary of the method: as §1

[4] = system: yellow nutsedge (Cyperus esculentus); conditions: for Nutsedge, Yellow plant response rating (0 to 100 scale): 62 g ai/ha, 0 is no effect
Summary of the method: as §1

[5] = system: lambsquarters (Chenopodium album); conditions: for Lambsquarters plant response rating (0 to 100 scale): 62 g ai/ha, 0 is no effect
Summary of the method: as §1

[6] = system: velvetleaf (Abutilon theophrasti); conditions: for Velvetleaf plant response rating (0 to 100 scale): 62 g ai/ha, 0 is no effect
Summary of the method: as §1

[7] = system: goosegrass (Eleusine indica); conditions: for Goosegrass plant response rating (0 to 100 scale): 62 g ai/ha, 0 is no effect
Summary of the method: as §1

kochia (Kochia scoparia) = conditions: for Kochia plant response rating (0 to 100 scale): 62 g ai/ha, 0 is no effect
Summary of the method: as §1

[8] = system: wheat (Triticum aestivum); conditions: for Wheat plant response rating (0 to 100 scale): 62 g ai/ha, 0 is no effect
Summary of the method: as §1

[9] = system: Surinam grass (Brachiaria decumbens); conditions: for Surinam Grass plant response rating (0 to 100 scale): 62 g ai/ha, 0 is no effect
Summary of the method: as §1

[10] = system: downy bromegrass (Bromus tectorum); conditions: for Bromegrass, Downy plant response rating (0 to 100 scale): 62 g ai/ha, 0 is no effect
Summary of the method: as §1

[11] = system: ragweed (common ragweed, Ambrosia elatior); conditions: for Ragweed plant response rating (0 to 100 scale): 62 g ai/ha, 0 is no effect
Summary of the method: as §1

corn (Zea mays) = conditions: for Corn plant response rating (0 to 100 scale): 62 g ai/ha, 0 is no effect
Summary of the method: as §1

[12] = system: woolly cupgrass (Eriochloa villosa); conditions: for Cupgrass, Woolly plant response rating (0 to 100 scale): 62 g ai/ha, 0 is no effect
Summary of the method: as §1

[13] = system: blackgrass (Alopecurus myosuroides); conditions: for Blackgrass plant response rating (0 to 100 scale): 62 g ai/ha, 0 is no effect
Summary of the method: as §1

[14] = system: large crabgrass (Digitaria sanguinalis); conditions: for Crabgrass, Large plant response rating (0 to 100 scale): 62 g ai/ha, 0 is no effect
Summary of the method: as §1

wild oat (Avena fatua) = conditions: for Oat, Wild plant response rating (0 to 100 scale): 62 g ai/ha, 0 is no effect
Summary of the method: as §1

[15] = 31 g ai/ha, postemergence, scale 0 to 100, 0 is no effect, 100 is complete control
[16] = postemergence, 100 is complete control, 13 to 15 days
[17] = Postemergence, 250 g ai/ha, scale 0 to 100 (0 no effect, 100 complete control)
[18] = Postemergence, 125 g ai/ha, visual rating after 13 to 15 days, scale 0 (no effect) to 100 (complete control)
[19] = Postemergence, 31 g ai/ha, 0 to 100 scale (0 no effect, 100 complete control)
[20] = Postemergence, 125 g ai/ha, scale 0 to 100 (0 no effect, 100 complete control)
[21] = Postemergence, 250 g ai/ha, scale 0 to 100 (0 no effect, 100 complete control), 13 to 15 days

CCOCCn1c(-c2ccccc2)ncc(C(=O)C2=C(O)CCCC2=O)c1=O [Compound 96]
70: Plant response rating, Nutsedge, Yellow [4, 15] | Nutsedge, Yellow plant response rating (0 to 100 scale) [4, 16] | Plant response rating, Goosegrass [7, 15] | Goosegrass plant response rating (0 to 100 scale) [7, 16] | Plant response rating, Cupgrass, Woolly [12, 15]
75: Soybean plant response rating (0 to 100 scale) (soybean (Glycine max); [16]) | Plant response rating, Surinam Grass [9, 15] | Surinam Grass plant response rating (0 to 100 scale) [9, 16] | Cupgrass, Woolly plant response rating (0 to 100 scale) [12, 16] | Plant response rating, Crabgrass, Large [14, 15]
98: Plant response rating, Soybean (soybean (Glycine max); [17]) | Lambsquarters plant response rating (0 to 100 scale) [5, 16] | Velvetleaf plant response rating (0 to 100 scale) [6, 16]
65: Plant response rating, Soybean (soybean (Glycine max); [15]) | Plant response rating, Kochia (kochia (Kochia scoparia); [15]) | Plant response rating, Corn (corn (Zea mays); [18])
100: Plant response rating, Pigweed [1, 17] | Plant response rating, Lambsquarters [5, 17] | Plant response rating, Velvetleaf [6, 17] | Plant response rating, Kochia (kochia (Kochia scoparia); [17])
30: Plant response rating, Blackgrass [13, 18] | Plant response rating, Oat, Wild (wild oat (Avena fatua); [17])
15: Plant response rating, Wheat [8, 17]
40: Plant response rating, Blackgrass [13, 17]
0: Plant response rating, Ryegrass, Italian [2, 15] | Plant response rating, Wheat [8, 15] | Plant response rating, Bromegrass, Downy [10, 15] | Bromegrass, Downy plant response rating (0 to 100 scale) [10, 16] | Plant response rating, Oat, Wild (wild oat (Avena fatua); [15])
95: Pigweed plant response rating (0 to 100 scale) [1, 16] | Plant response rating, Velvetleaf [6, 15] | Plant response rating, Ragweed [11, 17]
45: Johnsongrass plant response rating (0 to 100 scale) [3, 16] | Plant response rating, Corn (corn (Zea mays); [15])
85: Plant response rating, Nutsedge, Yellow [4, 17] | Plant response rating, Goosegrass [7, 17] | Kochia plant response rating (0 to 100 scale) (kochia (Kochia scoparia); [16]) | Plant response rating, Surinam Grass [9, 17] | Plant response rating, Cupgrass, Woolly [12, 18] | Plant response rating, Cupgrass, Woolly [12, 17] | Plant response rating, Crabgrass, Large [14, 18]
5: Ryegrass, Italian plant response rating (0 to 100 scale) [2, 16] | Wheat plant response rating (0 to 100 scale) [8, 16] | Plant response rating, Bromegrass, Downy [10, 18] | Plant response rating, Blackgrass [13, 15] | Oat, Wild plant response rating (0 to 100 scale) (wild oat (Avena fatua); [16])
60: Corn plant response rating (0 to 100 scale) (corn (Zea mays); [16])
10: Plant response rating, Ryegrass, Italian [2, 17] | Plant response rating, Bromegrass, Downy [10, 17]
20: Plant response rating, Johnsongrass [3, 15] | Blackgrass plant response rating (0 to 100 scale) [13, 16]
90: Plant response rating, Pigweed [1, 15] | Plant response rating, Lambsquarters [5, 15] | Plant response rating, Crabgrass, Large [14, 17]
80: Plant response rating, Johnsongrass [3, 17] | Plant response rating, Ragweed [11, 15] | Ragweed plant response rating (0 to 100 scale) [11, 16] | Plant response rating, Corn (corn (Zea mays); [17]) | Crabgrass, Large plant response rating (0 to 100 scale) [14, 16]

O=C1CCCC(O)=C1C(=O)c1cnc(-c2ccccc2)n(C2CCOCC2)c1=O [Compound 129]
5: Plant response rating, Bromegrass, Downy [10, 19] | Blackgrass plant response rating (0 to 100 scale) [13, 16] | Plant response rating, Blackgrass [13, 20] | Plant response rating, Blackgrass [13, 21] | Oat, Wild plant response rating (0 to 100 scale) (wild oat (Avena fatua); [16])
60: Plant response rating, Nutsedge, Yellow [4, 20] | Plant response rating, Corn (corn (Zea mays); [20]) | Plant response rating, Corn (corn (Zea mays); [21])
0: Ryegrass, Italian plant response rating (0 to 100 scale) [2, 16] | Plant response rating, Ryegrass, Italian [2, 19] | Plant response rating, Ryegrass, Italian [2, 20] | Plant response rating, Ryegrass, Italian [2, 21] | Wheat plant response rating (0 to 100 scale) [8, 16] | Plant response rating, Wheat [8, 19] | Plant response rating, Wheat [8, 20] | Plant response rating, Wheat [8, 21] | Plant response rating, Blackgrass [13, 19] | Plant response rating, Oat, Wild (wild oat (Avena fatua); [19])
70: Plant response rating, Johnsongrass [3, 20]
40: Plant response rating, Johnsongrass [3, 19]
98: Soybean plant response rating (0 to 100 scale) (soybean (Glycine max); [16]) | Plant response rating, Soybean (soybean (Glycine max); [20]) | Plant response rating, Soybean (soybean (Glycine max); [21]) | Plant response rating, Pigweed [1, 20] | Plant response rating, Pigweed [1, 21] | Plant response rating, Lambsquarters [5, 21] | Plant response rating, Kochia (kochia (Kochia scoparia); [21])
30: Plant response rating, Oat, Wild (wild oat (Avena fatua); [21])
100: Plant response rating, Velvetleaf [6, 21]
10: Bromegrass, Downy plant response rating (0 to 100 scale) [10, 16]
80: Plant response rating, Kochia (kochia (Kochia scoparia); [19]) | Plant response rating, Surinam Grass [9, 19] | Plant response rating, Cupgrass, Woolly [12, 19] | Crabgrass, Large plant response rating (0 to 100 scale) [14, 16] | Plant response rating, Crabgrass, Large [14, 19]
90: Plant response rating, Lambsquarters [5, 19] | Plant response rating, Goosegrass [7, 20] | Plant response rating, Ragweed [11, 19]
35: Nutsedge, Yellow plant response rating (0 to 100 scale) [4, 16] | Plant response rating, Nutsedge, Yellow [4, 19] | Plant response rating, Bromegrass, Downy [10, 21] | Corn plant response rating (0 to 100 scale) (corn (Zea mays); [16])
45: Johnsongrass plant response rating (0 to 100 scale) [3, 16]
20: Plant response rating, Corn (corn (Zea mays); [19]) | Plant response rating, Oat, Wild (wild oat (Avena fatua); [20])
85: Plant response rating, Pigweed [1, 19] | Plant response rating, Johnsongrass [3, 21] | Plant response rating, Nutsedge, Yellow [4, 21] | Goosegrass plant response rating (0 to 100 scale) [7, 16] | Plant response rating, Goosegrass [7, 19] | Surinam Grass plant response rating (0 to 100 scale) [9, 16] | Plant response rating, Surinam Grass [9, 20] | Plant response rating, Surinam Grass [9, 21] | Cupgrass, Woolly plant response rating (0 to 100 scale) [12, 16] | Plant response rating, Cupgrass, Woolly [12, 20] | Plant response rating, Cupgrass, Woolly [12, 21] | Plant response rating, Crabgrass, Large [14, 20] | Plant response rating, Crabgrass, Large [14, 21]
95: Plant response rating, Soybean (soybean (Glycine max); [19]) | Pigweed plant response rating (0 to 100 scale) [1, 16] | Lambsquarters plant response rating (0 to 100 scale) [5, 16] | Plant response rating, Lambsquarters [5, 20] | Velvetleaf plant response rating (0 to 100 scale) [6, 16] | Plant response rating, Velvetleaf [6, 19] | Plant response rating, Velvetleaf [6, 20] | Plant response rating, Goosegrass [7, 21] | Kochia plant response rating (0 to 100 scale) (kochia (Kochia scoparia); [16]) | Plant response rating, Kochia (kochia (Kochia scoparia); [20]) | Ragweed plant response rating (0 to 100 scale) [11, 16] | Plant response rating, Ragweed [11, 20] | Plant response rating, Ragweed [11, 21]
15: Plant response rating, Bromegrass, Downy [10, 20]

Reference: US8952024B2, “Herbicidal pyrimidone derivatives” (E I du Pont de Nemours and Company, priority 2009, dated 2015)
